Literature values in patent US20250356959A1, “Toxicity Prediction Of Compounds In Cellular Structures” (Sanofi, priority 2022, published 2025).

Test system: liver cells
Conditions: positive control, 60 micro moles

CN(C)CCCN1c2ccccc2Sc2ccc(Cl)cc21 [CPZ, Chlorpromazine]
known toxic effect of reference compound: toxic to liver cells and triggers cholestasis
